# No end group written: not given here.
# Molecular target: T1, MHC class I allele A*0101 (A1) (Homo sapiens, UniProt P04439, A114D/A174V/A182V/D101N/D185E/E176A/E190D/L180R/Q94H/R68K/S129P/T187R/V100A/V91M/W191G)
# Assay: iTopia peptide binding assay, A*0101
# Conditions: percent of positive control peptide binding; peptide at 1.11×10^−5M
# Experimental: (§1) The 9 mers were tested for Peptide Binding, Off Rate and Affinity using iTopia Epitope Discovery System in accordance with the manufacturer's instructions. Briefly, 96 well microtitre plates coated with MHC molecules representing different MHC alleles are used to identify candidate peptides. […] Determinations are performed in duplicate using an ELISA plate reader and included allele specific positive controls.
# (§2) i) Peptide Binding—This assay measures the ability of individual peptides to bind to the MHC molecules under standardized optimal binding conditions. The assay is performed for all the test peptides across the selected MHC alleles. The test peptides identified as “binders” are characterized further in terms of affinity and dissociation experiments.
# (§3) Following a period of binding under optimal conditions, excess antibody is removed and a measurement of total fluorescence taken (D).
# (§4) The binding of the test peptides to the MHC molecules was performed at 1.11×10^−5M of peptide under optimal, standardised test conditions. A control peptide was run in parallel on the same plate and at the same concentration as the test peptides.
# (§5) The level of binding is expressed as a percent of positive control peptide binding for each allele.
row,Sequence,"Peptide binding, MHC Class I Molecule A*0101"
1,DPILPPSLQ [Peptide 173],0 % of control
2,DRLTCAYPE [Peptide 160],0 % of control
3,ECSEAARTV [Peptide 34],2 % of control
4,EDERQNRSF [Peptide 94],0 % of control
5,EGYHYRYEI [Peptide 199],0 % of control
6,ERQNRSFEG [Peptide 95],0 % of control

# Molecular target: T2, MHC class I allele B*0702 (B7) (Homo sapiens, UniProt P01889)
# Assay: iTopia peptide binding assay, B*0702
# Conditions: percent of positive control peptide binding; peptide at 1.11×10^−5M
# Experimental: as §1, §2, §3, §4, §5
row,Sequence,"Peptide binding, MHC Class I Molecule B*0702"
1,DPILPPSLQ [Peptide 173],0 % of control
2,DRLTCAYPE [Peptide 160],3 % of control
3,ECSEAARTV [Peptide 34],0 % of control
4,EDERQNRSF [Peptide 94],4 % of control
5,EGYHYRYEI [Peptide 199],4 % of control
6,ERQNRSFEG [Peptide 95],1 % of control

# Molecular target: T3, MHC class I allele A*0301 (A3) (Homo sapiens, UniProt P04439)
# Assay: iScore multi-parametric analysis, A*0301
# Assay type: binding
# Conditions: level of binding: >0.5, 0.25-0.5, <0.25
# Outline: (§6)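 Composite binding-quality index from multiparametric analysis of peptide–MHC half-life and ED50. Thresholds established on A*0201 (>0.5, 0.25–0.5, <0.25) are allele-specific and not necessarily applicable to A*0301, A*0101 or B*0702.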
row,Sequence,"iScore, MHC Class I Molecule A*0301"
1,VLAQLPSLR [Peptide 115],0.023
2,VLLELNSAD [Peptide 167],0
3,VLPAGAFAR [Peptide 53],0.027
4,VLYLNRKGI [Peptide 187],0.014
5,VPTDLPAYV [Peptide 43],0
6,VRAGAFEHL [Peptide 67],0
7,VSLTYVSFR [Peptide 124],0.025
8,YEINADPRL [Peptide 202],0
9,YLNRKGIKK [Peptide 188],0.065
10,YPEKMRNRV [Peptide 163],0
11,YVSFRNLTH [Peptide 126],0.086

# Molecular target: T1, MHC class I allele A*0101 (A1)
# Assay: iScore multi-parametric analysis, A*0101
# Assay type: binding
# Conditions: integrates half-life and ED50
# Outline: as §6
row,Sequence,"iScore (iTopia), A*0101"
1,VPTDLPAYV [Peptide 43],0.098

# Same assay, conditions: level of binding: >0.5, 0.25-0.5, <0.25
row,Sequence,"iScore, MHC Class I Molecule A*0101"
1,VLAQLPSLR [Peptide 115],0
2,VLLELNSAD [Peptide 167],0
3,VLPAGAFAR [Peptide 53],0
4,VLYLNRKGI [Peptide 187],0
5,VPTDLPAYV [Peptide 43],0.098
6,VRAGAFEHL [Peptide 67],0
7,VSLTYVSFR [Peptide 124],0
8,YEINADPRL [Peptide 202],0
9,YLNRKGIKK [Peptide 188],0
10,YPEKMRNRV [Peptide 163],0
11,YVSFRNLTH [Peptide 126],0

# Molecular target: T4, MHC class I allele A*0201 (A2) (Homo sapiens, UniProt P04439, D140Y/D185E/D98H/E176V/E277Q/G131W/G231S/I119V/I121R/I166T/I218V/L300P/L318F/N151K/N90K/P208A/P217A/Q86G/Q94H/R138H/R169H/T345S)
# Assay: iScore multi-parametric analysis, A*0201
# Assay type: binding
# Conditions: level of binding: >0.5, 0.25-0.5, <0.25
# Outline: as §6
row,Sequence,"iScore, MHC Class I Molecule A*0201"
1,VLAQLPSLR [Peptide 115],0.113
2,VLLELNSAD [Peptide 167],0.105
3,VLPAGAFAR [Peptide 53],0.081
4,VLYLNRKGI [Peptide 187],0.095
5,VPTDLPAYV [Peptide 43],0.059
6,VRAGAFEHL [Peptide 67],0
7,VSLTYVSFR [Peptide 124],0
8,YEINADPRL [Peptide 202],0.077
9,YLNRKGIKK [Peptide 188],0.118
10,YPEKMRNRV [Peptide 163],0
11,YVSFRNLTH [Peptide 126],0

# Molecular target: T3, MHC class I allele A*0301 (A3)
# Assay: iTopia peptide binding assay, A*0301
# Conditions: percent of positive control peptide binding; peptide at 1.11×10^−5M
# Experimental: as §1, §2, §3, §4, §5
row,Sequence,"Peptide binding, MHC Class I Molecule A*0301"
1,DPILPPSLQ [Peptide 173],4 % of control
2,DRLTCAYPE [Peptide 160],5 % of control
3,ECSEAARTV [Peptide 34],0 % of control
4,EDERQNRSF [Peptide 94],4 % of control
5,EGYHYRYEI [Peptide 199],0 % of control
6,ERQNRSFEG [Peptide 95],1 % of control

# Molecular target: T2, MHC class I allele B*0702 (B7)
# Assay: iScore multi-parametric analysis, B*0702
# Conditions: level of binding: >0.5, 0.25-0.5, <0.25
# Outline: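 iScore integrates peptide-MHC complex half-life and ED50 into a single multi-parametric value reflecting overall binding quality.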
row,Sequence,"iScore, MHC Class I Molecule B*0702"
1,VLAQLPSLR [Peptide 115],0
2,VLLELNSAD [Peptide 167],0
3,VLPAGAFAR [Peptide 53],0
4,VLYLNRKGI [Peptide 187],0.164
5,VPTDLPAYV [Peptide 43],0
6,VRAGAFEHL [Peptide 67],0.085
7,VSLTYVSFR [Peptide 124],0
8,YEINADPRL [Peptide 202],0
9,YLNRKGIKK [Peptide 188],0.089
10,YPEKMRNRV [Peptide 163],0.242
11,YVSFRNLTH [Peptide 126],0.21

# Molecular target: T4, MHC class I allele A*0201 (A2)
# Assay: iTopia peptide binding assay, A*0201
# Conditions: percent of positive control peptide binding; peptide at 1.11×10^−5M
# Experimental: as §1, §2, §3, §4, §5
row,Sequence,"Peptide binding, MHC Class I Molecule A*0201"
1,DPILPPSLQ [Peptide 173],7 % of control
2,DRLTCAYPE [Peptide 160],6 % of control
3,ECSEAARTV [Peptide 34],4 % of control
4,EDERQNRSF [Peptide 94],2 % of control
5,EGYHYRYEI [Peptide 199],9 % of control
6,ERQNRSFEG [Peptide 95],1 % of control

# Reference: patent US8147838B2, “Peptide” (priority 2005, dated 2012)
